Read-outs that look alike come from different tables or passages of the source.
How the values were obtained:
NaV1.6 sodium channels = NaV1.6 sodium channels (Homo sapiens, UniProt Q9UQD0); assay: State-dependent inhibition: steady state inactivation, use-dependent block; type: cell-based
Source text: Evaluation of Compounds as State-Dependent Inhibitors
Use dependent block is an important characteristic for AED activity since it allows increased inhibition of sodium channels during increased neuronal activity as is observed during seizures.

[1] = system: maximal electroshock (MES) seizures; assay: MES (maximal electroshock) test, rats; type: in vivo; settings: for MES N/F (animals active over number tested): 30 mg/kg
Source text: Evaluation of Compounds in MES Models of Seizures. The MES is a model for generalized tonic-clonic seizures and provides an indication of a compound's ability to prevent seizure spread when all neuronal circuits in the brain are maximally active. These seizures are highly reproducible and are electrophysiologically consistent with human seizures. […] Abolition of the hindleg tonic extensor component of the seizure was used as the endpoint.

Nav1.6 = Nav1.6 (Homo sapiens, UniProt Q9UQD0); assay: % block of Nav1.6 at 100 μM and IC50 (NaV1.6); type: cell-based
Sequence of Nav1.6 (Q9UQD0 whole entry): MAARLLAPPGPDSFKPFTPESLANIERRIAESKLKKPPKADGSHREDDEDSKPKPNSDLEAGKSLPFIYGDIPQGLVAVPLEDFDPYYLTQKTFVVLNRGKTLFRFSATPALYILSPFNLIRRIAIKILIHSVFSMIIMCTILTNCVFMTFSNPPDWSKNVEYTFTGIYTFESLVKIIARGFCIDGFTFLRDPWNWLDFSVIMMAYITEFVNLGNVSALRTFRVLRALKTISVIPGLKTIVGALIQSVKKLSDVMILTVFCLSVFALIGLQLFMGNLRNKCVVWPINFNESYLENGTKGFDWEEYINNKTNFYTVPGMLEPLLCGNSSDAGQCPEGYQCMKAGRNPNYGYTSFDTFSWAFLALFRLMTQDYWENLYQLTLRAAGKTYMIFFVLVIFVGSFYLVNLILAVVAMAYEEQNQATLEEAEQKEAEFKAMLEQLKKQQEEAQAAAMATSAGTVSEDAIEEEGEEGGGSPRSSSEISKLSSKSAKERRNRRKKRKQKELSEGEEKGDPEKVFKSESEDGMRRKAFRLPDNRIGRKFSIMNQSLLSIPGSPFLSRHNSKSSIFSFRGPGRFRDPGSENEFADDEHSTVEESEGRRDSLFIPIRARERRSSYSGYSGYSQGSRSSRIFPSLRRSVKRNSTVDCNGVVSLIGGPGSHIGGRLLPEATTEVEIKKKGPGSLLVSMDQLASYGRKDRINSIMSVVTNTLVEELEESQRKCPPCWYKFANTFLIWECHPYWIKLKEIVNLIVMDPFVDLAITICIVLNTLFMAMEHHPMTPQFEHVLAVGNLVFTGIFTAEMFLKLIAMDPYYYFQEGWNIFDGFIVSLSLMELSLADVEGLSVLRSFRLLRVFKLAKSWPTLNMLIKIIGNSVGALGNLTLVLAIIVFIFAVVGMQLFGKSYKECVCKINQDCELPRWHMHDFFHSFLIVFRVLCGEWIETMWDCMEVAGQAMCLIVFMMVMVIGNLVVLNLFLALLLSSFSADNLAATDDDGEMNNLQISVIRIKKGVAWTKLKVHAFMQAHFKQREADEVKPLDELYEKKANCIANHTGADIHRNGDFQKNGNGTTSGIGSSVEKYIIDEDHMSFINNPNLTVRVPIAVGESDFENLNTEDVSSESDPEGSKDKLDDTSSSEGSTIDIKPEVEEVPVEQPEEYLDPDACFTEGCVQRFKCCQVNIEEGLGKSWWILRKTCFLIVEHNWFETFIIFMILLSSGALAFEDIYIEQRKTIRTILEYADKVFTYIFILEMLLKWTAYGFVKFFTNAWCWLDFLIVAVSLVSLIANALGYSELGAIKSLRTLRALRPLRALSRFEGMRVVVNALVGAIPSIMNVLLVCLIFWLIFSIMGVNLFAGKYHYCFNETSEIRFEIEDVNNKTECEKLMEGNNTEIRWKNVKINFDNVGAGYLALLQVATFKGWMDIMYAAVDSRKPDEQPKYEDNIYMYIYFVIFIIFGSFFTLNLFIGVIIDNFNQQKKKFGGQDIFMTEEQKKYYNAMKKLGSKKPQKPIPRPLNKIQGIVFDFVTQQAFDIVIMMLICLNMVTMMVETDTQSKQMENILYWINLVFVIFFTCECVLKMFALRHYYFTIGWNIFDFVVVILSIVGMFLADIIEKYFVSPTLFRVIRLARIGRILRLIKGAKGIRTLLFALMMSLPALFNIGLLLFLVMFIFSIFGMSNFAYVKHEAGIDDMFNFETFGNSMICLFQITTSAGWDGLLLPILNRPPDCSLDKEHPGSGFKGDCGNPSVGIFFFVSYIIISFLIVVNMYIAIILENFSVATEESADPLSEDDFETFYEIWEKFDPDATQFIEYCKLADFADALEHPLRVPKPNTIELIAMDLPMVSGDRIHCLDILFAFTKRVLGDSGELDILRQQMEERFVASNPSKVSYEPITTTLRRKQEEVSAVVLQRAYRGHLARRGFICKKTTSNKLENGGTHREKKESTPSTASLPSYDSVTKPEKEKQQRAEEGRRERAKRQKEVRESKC
Summary of the method: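 Nav1.6 block recorded as percent inhibition at 100 μM compound; IC50 also reported.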

[2] = system: Metrazol-induced clonic seizures; assay: scM (subcutaneous Metrazol) test, mice; type: in vivo
Protocol: (§1) Evaluation of Compounds in scM Models of Seizures. Subcutaneous injection of the convulsant Metrazol produces clonic seizures in laboratory animals. […] Animals may be pretreated with various doses of the test compound given by ip injection. At a previously determined TPE (time to peak) of the test compound, the dose of Metrazol which will induce convulsions in 97% of animals (CD97:85 mg/kg mice) may be injected into a loose fold of skin in the midline of the neck. The animals may be placed in isolation cages to minimize stress and observed for the next 30 min for the presence or absence of a seizure. An episode of clonic spasms, approximately 3-5 seconds, of the fore and/or hindlimbs, jaws, or vibrissae may be taken as the endpoint. […] The scM test represents acute animal seizures.

[3] = system: corneal kindled mice seizures; assay: Corneal kindled mice model; type: in vivo; settings: for Avg. Score / N/F (animals active over number tested): TPE 0.5 hours
Protocol: Evaluation of Compounds in Corneal Kindled Mice Model.
Corneal kindled mice are kindled electrically via 3 second stimulation at 8 mA, 60 Hz through corneal electrodes to produce 10 consecutive stage […] seizures according to the Racine scale. Animals are defined as kindled once they progress to a reproducible stage 5 seizure. 72 hours after the mice have been kindled the test substance is administered and, according to a previously determined TPE (time to peak), the animals are electrically stimulated. The animals are considered protected when displaying a stage 3, or lower, seizure.

in vivo = settings: mouse, ip
[4] = system: maximal electroshock (MES) seizures; assay: MES (maximal electroshock) test, mice; type: in vivo; settings: for MES N/F (animals active over number tested): 100 mg/kg
Source text: Evaluation of Compounds in MES Models of Seizures. […] These seizures are highly reproducible and are electrophysiologically consistent with human seizures. […] Abolition of the hindleg tonic extensor component of the seizure was used as the endpoint.

mice = settings: mouse, in vivo, ip, 100 mg/kg
[5] = system: Metrazol-induced clonic seizures; assay: scM (subcutaneous Metrazol) test, rats; type: in vivo
Protocol: as §1

[6] = Behavioral toxicity (TOX, TD50), rats; type: in vivo; settings: rat, in vivo, IP, Table 15, read-out: TOX TD50
rats = assay: Behavioral toxicity (TOX, TD50), rats; type: in vivo; settings: IP, 30 mg/kg
[7] = system: 6 Hz psychomotor seizures; assay: 6 Hz psychomotor seizure test, mice; type: in vivo; settings: for 6 Hz N/F (animals active over number tested): 100 mg/kg; for ED50: Mus musculus
Protocol: Evaluation of Compounds in 6 Hz Pyschomotor Seizure Test
Compounds were tested using a 6 Hz psychomotor seizure test. […] For example, both the MES and scM models are insensitive to levetiracetam, a compound considered potentially useful in the management of refractory seizures. […] Thus, the 6 Hz test can serve as a therapy resistant screening paradigm of acute seizure activity.

Sequence of NaV1.6 sodium channels (Q9UQD0 whole entry): as above

Compound: Clc1ccc2nc(-c3ccccc3)[nH]c2c1 [MV1066, 6-chloro-2-phenyl-1H-1,3-benzodiazole]
- effect on current amplitude and activation gating (NaV1.6 sodium channels; 100 μM, 1 second pre-pulse): inhibits macroscopic current amplitude but has no effect on activation gating
- use-dependent block (NaV1.6 sodium channels; 20 Hz): profound use-dependent block
- affinity by holding potential (dose response) (NaV1.6 sodium channels; cells held at −100 mV or −60 mV, stepped to +10 mV): greater affinity for cells held at −60 mV
- ED50 ([1]; Rat, time 0.5 hrs, read-out: ED50 from MES test): 25.1 mg/kg
- ED50 ([1]; Rattus norvegicus, rats, IP, Table 15, read-out: MES ED50): 25.1 mg/kg
- MES N/F (animals active over number tested) ([1]; rats, IP, 0.25 h): 2/4
- MES N/F (animals active over number tested) ([1]; rats, IP, 0.5 h): 4/4
- MES N/F (animals active over number tested) ([1]; rats, IP, 1.0 h): 4/4
- MES N/F (animals active over number tested) ([1]; rats, IP, 2.0 h): 3/4
- MES N/F (animals active over number tested) ([1]; rats, IP, 4.0 h): 4/4
- inhibition at 100 µM (Nav1.6; 100 μM compound): 95%
- IC50 (Nav1.6; NaV1.6, Table 2, MV1060-MV1091, unit inferred, read-out: IC50): 34.6 µM
- ED50 ([2]; Mus musculus, mice, IP, Table 14, read-out: sCM ED50): 180 mg/kg
- ED50 ([2]; sc, Mouse, time 0.5 hrs, read-out: ED50 from scM test): 181 mg/kg
- Avg. Score ([3]; 35 mg/kg): 4.75
- N/F (animals active over number tested) ([3]; 35 mg/kg): 1/8
- Avg. Score ([3]; 72 mg/kg): 3.125
- N/F (animals active over number tested) ([3]; 72 mg/kg): 5/8
- Avg. Score ([3]; 90 mg/kg): 2.75
- N/F (animals active over number tested) ([3]; 90 mg/kg): 5/8
- Avg. Score ([3]; 120 mg/kg): 0.375
- N/F (animals active over number tested) ([3]; 120 mg/kg): 8/8
- ED50 ([3]; Mus musculus): 64.1 mg/kg
- TD50 (in vivo): 383 mg/kg
- ED50 ([4]; Mouse, time 0.5 hrs, read-out: ED50 from MES test): 44.2 mg/kg
- ED50 ([4]; Mus musculus, mice, IP, Table 14, read-out: MES ED50): 44.2 mg/kg
- MES N/F (animals active over number tested) ([4]; mice, IP, 0.25 h): 4/4
- MES N/F (animals active over number tested) ([4]; mice, IP, 0.5 h): 4/4
- MES N/F (animals active over number tested) ([4]; mice, IP, 1.0 h): 4/4
- MES N/F (animals active over number tested) ([4]; mice, IP, 2.0 h): 4/4
- MES N/F (animals active over number tested) ([4]; mice, IP, 4.0 h): 4/4
- TOX N/F (animals toxic over number tested) (mice; 0.5 h): 0/4
- TOX N/F (animals toxic over number tested) (mice; 1 h): 0/4
- TOX N/F (animals toxic over number tested) (mice; 2 h): 0/4
- TOX N/F (animals toxic over number tested) (mice; 4 h): 0/4
- ED50 ([5]; Rattus norvegicus, rats, IP, Table 15, read-out: sCM ED50): 96.9 mg/kg
- ED50 ([5]; sc, Rat, time 0.5 hrs, read-out: ED50 from scM test): 97 mg/kg
- TD50 [6]: > 500 mg/kg
- TOX N/F (animals toxic over number tested) (rats; 0.25 h): 0/4
- TOX N/F (animals toxic over number tested) (rats; 0.5 h): 0/4
- TOX N/F (animals toxic over number tested) (rats; 1.0 h): 0/4
- TOX N/F (animals toxic over number tested) (rats; 2.0 h): 0/4
- TOX N/F (animals toxic over number tested) (rats; 4.0 h): 0/4
- 6 Hz N/F (animals active over number tested) ([7]; IP, 32 mA, 0.25 h): 4/4
- 6 Hz N/F (animals active over number tested) ([7]; IP, 32 mA, 0.5 h): 4/4
- 6 Hz N/F (animals active over number tested) ([7]; IP, 32 mA, 1.0 h): 3/4
- 6 Hz N/F (animals active over number tested) ([7]; IP, 32 mA, 2.0 h): 2/4
- 6 Hz N/F (animals active over number tested) ([7]; IP, 32 mA, 4.0 h): 0/4
- 6 Hz N/F (animals active over number tested) ([7]; IP, 44 mA, 0.25 h): 2/4
- 6 Hz N/F (animals active over number tested) ([7]; IP, 44 mA, 0.5 h): 2/4
- 6 Hz N/F (animals active over number tested) ([7]; IP, 44 mA, 1.0 h): 2/4
- 6 Hz N/F (animals active over number tested) ([7]; IP, 44 mA, 2.0 h): 0/4
- 6 Hz N/F (animals active over number tested) ([7]; IP, 44 mA, 4.0 h): 0/4
- ED50 ([7]; 32 mA, read-out: ED50 (6 Hz test)): 67.1 mg/kg
- ED50 ([7]; IP, 32 mA, Table 14, read-out: 6 Hz (32 mA) ED50): 67.1 mg/kg
- ED50 ([7]; IP, (14 mA) [sic], Table 14, read-out: 6 Hz (14 mA) ED50): 72.4 mg/kg

Source: patent publication US12403128B2, “Compositions and methods for blocking sodium channels” (University of Virginia Patent Foundation, priority 2017, dated 2025)
